Like-named read-outs stand apart in the source and are kept apart here.
What was measured:
[1] = tested on: PDE4; test: Evaluation of PDE4 inhibitory activity, scintillation proximity assay; format: biochemical; settings: scintillation proximity assay
Method in brief: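 IC50 was derived from inhibition curves, referenced to an enzyme-free blank and a DMSO-only control. Compound, PDE4 preparation and tritiated cAMP reacted 120 min at RT in Tris-HCl buffer (pH 7.4) with MgCl2, EGTA and BSA; YSi-SPA beads with ZnSO4 bound product before scintillation counting.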

[2] = Hepatic metabolic stability (rat liver microsome method); format: in vitro ADME; settings: rat liver microsomes 0.5 mg/mL, test substance 1 μM, NADPH 1 mM, 37° C., 30 minutes
Description: Metabolic stability in rat liver microsomes was evaluated by the following method. First, in 100 mM of potassium phosphate buffer solution (pH 7.4), liver microsomes (concentration at reaction: 0.5 mg/mL) and the test substance (concentration at reaction: 1 μM) were preincubated at 37° C. Five minutes later, 100 mM of potassium phosphate buffer (pH 7.4) solution of NADPH (concentration at reaction: 1 mM) was mixed thereto to start the reaction. After a predetermined time passed, acetonitrile was mixed to the reaction mixture to stop the reaction. Here, the reaction time was 0 and 30 minutes, and drug concentration measurement was performed for each time period using LC-MS. The % remaining value of the test compound was calculated from the value for 0 minutes and the value for 30 minutes, using the calculation formula below: % Remaining=(Value for 30 Minutes/Value for 0 Minutes)×100
The results of measuring the rat liver microsome metabolic Stability (% remaining for 30-minute reaction) for the test compound by the above method were evaluated in accordance with the following evaluated basis; A: a % remaining rate of 75% or more, B: 60% or more and less than 75%, C: 45% or more and less than 60%, and D: less than 45%.

[3] = read-out: PDE4 Inhibitory Activity (Evaluation 1; concentration for the inhibition rate of 50%)
[4] = class symbols of Evaluation 1, read-out: PDE4 Inhibitory Activity (concentration for the inhibition rate of 50%, IC50), Evaluation 1

| SMILES | IC50 [1, 3] [nM] | Residual ratio (% remaining for 30-minute reaction) [2] | IC50 [1, 4] [nM] |
| --- | --- | --- | --- |
| FC(F)(F)C(OCc1nnn[nH]1)c1ccc(-c2nccs2)c2oc(N3CC4CC(C3)N4)nc12 (centres unmarked) [Example 231, 4-(1-((1H-tetrazol-5-yl)methoxy)-2,2,2-trifluoroethyl)-2-(3,6-diazabicyclo[3.1.1]heptan-3-yl)-7-(thiazol-2-yl)benzo[d]oxazole] | < 100 | A (A: a % remaining rate of 75% or more) |  |
| FC(F)(F)Oc1c(Cl)cc(-n2cccn2)c2oc(N3CC4CCC(C3)N4)nc12 [Example 5, 2-(3,8-Diazabicyclo[3.2.1]octan-3-yl)-5-chloro-7-(1H-pyrazol-1-yl)-4-(trifluoromethoxy)benzo[d]oxazole] |  | B (B: 60% or more and less than 75%) | < 100 |
| OC1CCN(c2ccc(-c3nccs3)c3oc(N4CC5CC(C4)N5)nc23)CC1 [Example 397, 1-(2-(3,6-Diazabicyclo[3.1.1]heptan-3-yl)-7-(thiazol-2-yl)benzo[d]oxazol-4-yl)piperidin-4-ol] | < 100 | A (A: a % remaining rate of 75% or more) |  |
| CC(C)(O)C(F)(F)Oc1ccc(-c2ncccn2)c2oc(N3CC4CCC(C3)N4)nc12 [Example 330, 1-((2-(3,8-Diazabicyclo[3.2.1]octan-3-yl)-7-(pyrimidin-2-yl)benzo[d]oxazol-4-yl)oxy)-1,1-difluoro-2-methylpropan-2-ol] | < 100 | A (A: a % remaining rate of 75% or more) |  |
| OCC(O)C(F)(F)Oc1ccc(-c2nccs2)c2oc(N3CC4CC(C3)N4)nc12 (centres unmarked) [Example 370, 3-((2-(3,6-Diazabicyclo[3.1.1]heptan-3-yl)-7-(thiazol-2-yl)benzo[d]oxazol-4-yl)oxy)-3,3-difluoropropane-1,2-diol] | < 100 | A (A: a % remaining rate of 75% or more) |  |
| FC(F)(F)Oc1c(Cl)cc(-c2cscn2)c2oc(N3CC4CCC(C3)N4)nc12 [Example 8, 2-(3,8-Diazabicyclo[3.2.1]octan-3-yl)-5-chloro-7-(thiazol-4-yl)-4-(trifluoromethoxy)benzo[d]oxazole] |  | A (A: a % remaining rate of 75% or more) | < 100 |
| Cc1cc(C(F)(F)F)c(Oc2ccc(-c3nccs3)c3oc(N4CC5CC(C4)N5)nc23)nn1 [Example 340, 2-(3,6-Diazabicyclo[3.1.1]heptan-3-yl)-4-((6-methyl-4-(trifluoromethyl)pyridazin-3-yl)oxy)-7-(thiazol-2-yl)benzo[d]oxazole] | < 100 | A (A: a % remaining rate of 75% or more) |  |
| CC(C)(O)C(F)(F)Oc1ccc(-n2nccn2)c2oc(N3CC4CCC(C3)N4)nc12 [Example 322, 1-((2-(3,8-Diazabicyclo[3.2.1]octan-3-yl)-7-(2H-1,2,3-triazol-2-yl)benzo[d]oxazol-4-yl)oxy)-1,1-difluoro-2-methylpropan-2-ol] | < 100 | A (A: a % remaining rate of 75% or more) |  |
| O=C(N1CCOCC1)C(F)(F)Oc1ccc(-c2nccs2)c2oc(N3CC4CC(C3)N4)nc12 [Example 409, 2-((2-(3,6-Diazabicyclo[3.1.1]heptan-3-yl)-7-(thiazol-2-yl)benzo[d]oxazol-4-yl)oxy)-2,2-difluoro-1-morpholinoethan-1-one] | < 100 | B (B: 60% or more and less than 75%) |  |
| O=S(=O)(c1ccc(-c2nccs2)c2oc(N3CC4CC(C3)N4)nc12)N1CCOCC1 [Example 391, 2-(3,6-Diazabicyclo[3.1.1]heptan-3-yl)-4-(morpholinosulfonyl)-7-(thiazol-2-yl)benzo[d]oxazole] | < 100 | B (B: 60% or more and less than 75%) |  |
| CCC(O)C(F)(F)Oc1ccc(-c2nccs2)c2oc(N3CC4CC(C3)N4)nc12 (centres unmarked) [Example 395, 1-((2-(3,6-Diazabicyclo[3.1.1]heptan-3-yl)-7-(thiazol-2-yl)benzo[d]oxazol-4-yl)oxy)-1,1-difluorobutan-2-ol] | < 100 | B (B: 60% or more and less than 75%) |  |
| CC(O)(CO)C(F)(F)Oc1ccc(-c2nccs2)c2oc(N3CC4CC(C3)N4)nc12 (single isomer, unassigned) [Example 364, 3-((2-(3,6-Diazabicyclo[3.1.1]heptan-3-yl)-7-(thiazol-2-yl)benzo[d]oxazol-4-yl)oxy)-3,3-difluoro-2-methylpropane-1,2-diol] | < 100 | A (A: a % remaining rate of 75% or more) |  |
| CC(C)(O)C(F)(F)Oc1ccc(-c2ncco2)c2oc(N3CC4CCC(C3)N4)nc12 [Example 321, 1-((2-(3,8-Diazabicyclo[3.2.1]octan-3-yl)-7-(oxazol-2-yl)benzo[d]oxazol-4-yl)oxy)-1,1-difluoro-2-methylpropan-2-ol] | < 100 | A (A: a % remaining rate of 75% or more) |  |
| c1csc(-c2ccc(OC3CCOCC3)c3nc(N4CC5CCC(C4)N5)oc23)n1 [Example 254, 2-(3,8-Diazabicyclo[3.2.1]octan-3-yl)-4-((tetrahydro-2H-pyran-4-yl)oxy)-7-(thiazol-2-yl)benzo[d]oxazole] | < 100 | A (A: a % remaining rate of 75% or more) |  |
| OCC(F)(F)Oc1c(Cl)cc(-c2nccs2)c2oc(N3CC4CC(C3)N4)nc12 [Example 401, 2-((2-(3,6-Diazabicyclo[3.1.1]heptan-3-yl)-5-chloro-7-(thiazol-2-yl)benzo[d]oxazol-4-yl)oxy)-2,2-difluoroethan-1-ol] | < 100 | A (A: a % remaining rate of 75% or more) |  |
| c1cc(-c2nccs2)c2oc(N3CC4CC(C3)N4)nc2c1 [Example 382, 2-(3,6-Diazabicyclo[3.1.1]heptan-3-yl)-7-(thiazol-2-yl)benzo[d]oxazole] | < 100 | B (B: 60% or more and less than 75%) |  |
| CC(C)(O)C(F)(F)Oc1c(Cl)cc(-c2nccs2)c2oc(N3CC4CC(C3)N4)nc12 [Example 400, 1-((2-(3,6-Diazabicyclo[3.1.1]heptan-3-yl)-5-chloro-7-(thiazol-2-yl)benzo[d]oxazol-4-yl)oxy)-1,1-difluoro-2-methylpropan-2-ol] | < 100 | B (B: 60% or more and less than 75%) |  |
| [O-][S+](CCO)c1ccc(-c2nccs2)c2oc(N3CC4CC(C3)N4)nc12 (centres unmarked) [Example 349, 2-((2-(3,6-Diazabicyclo[3.1.1]heptan-3-yl)-7-(thiazol-2-yl)benzo[d]oxazol-4-yl)sulfinyl)ethan-1-ol] | < 100 | A (A: a % remaining rate of 75% or more) |  |
| c1ccc(Oc2ccc(-c3nccs3)c3oc(N4CC5CC(C4)N5)nc23)nc1 [Example 337, 2-(3,6-Diazabicyclo[3.1.1]heptan-3-yl)-4-(pyridin-2-yloxy)-7-(thiazol-2-yl)benzo[d]oxazole] |  | B (B: 60% or more and less than 75%) |  |
| CC(O)c1cc(-c2nccs2)c2oc(N3CC4CCC(C3)N4O)nc2c1OC(F)(F)F (centres unmarked) [Example 383, 3-(5-(1-Hydroxyethyl)-7-(thiazol-2-yl)-4-(trifluoromethoxy)benzo[d]oxazol-2-yl)-3,8-diazabicyclo[3.2.1]octan-8-ol] | > 1000 |  |  |
| FC(F)(F)c1c(Cl)cc(-n2cccn2)c2oc(N3CC4COCC(C3)N4)nc12 [Example 18, 7-(5-Chloro-7-(1H-pyrazol-1-yl)-4-(trifluoromethyl)benzo[d]oxazol-2-yl)-3-oxa-7,9-diazabicyclo[3.3.1]nonane] |  |  | 100 to 1000 |
| C[S+]([O-])c1cc(-c2nccs2)c2oc(N3CC4CC(C3)N4)nc2c1 (centres unmarked) [Example 43, 2-(3,6-Diazabicyclo[3.1.1]heptan-3-yl)-5-(methylsulfinyl)-7-(thiazol-2-yl)benzo[d]oxazole] |  |  | < 100 |
| FC(F)(/C=C/c1cccnc1)Oc1ccc(-c2nccs2)c2oc(N3CC4CC(C3)N4)nc12 [Example 406, (E)-2-(3,6-diazabicyclo[3.1.1]heptan-3-yl)-4-((1,1-difluoro-3-(pyridin-3-yl)allyl)oxy)-7-(thiazol-2-yl)benzo[d]oxazole] | < 100 |  |  |
| CC(O)(c1ccc(-c2nccs2)c2oc(N3CC4CCC(C3)N4)nc12)C(F)(F)F (centres unmarked) [Example 236, 2-(2-(3,8-Diazabicyclo[3.2.1]octan-3-yl)-7-(thiazol-2-yl)benzo[d]oxazol-4-yl)-1,1,1-trifluoropropan-2-ol] | < 100 |  |  |
| OC(c1cc(-c2nccs2)c2oc(N3CC4CCC(C3)N4)nc2c1C(F)(F)F)C(F)F (centres unmarked) [Example 183, 1-(2-(3,8-Diazabicyclo[3.2.1]octan-3-yl)-7-(thiazol-2-yl)-4-(trifluoromethyl)benzo[d]oxazol-5-yl)-2,2-difluoroethan-1-ol] | < 100 |  |  |
| CC(O)(c1ccc(-c2nccs2)c2oc(N3CC4CC(C3)N4)nc12)C(F)(F)F (centres unmarked) [Example 271, 2-(2-(3,6-Diazabicyclo[3.1.1]heptan-3-yl)-7-(thiazol-2-yl)benzo[d]oxazol-4-yl)-1,1,1-trifluoropropan-2-ol] | < 100 |  |  |
